# Results taken from PubChem BioAssay (NCI).
#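 Protocol summary: plate cells (96-well), add compound at 5 concentrations, incubate 48 h, interpolate endpoints linearly. The concentration for 50% growth inhibition is given as GI50. TGI: total growth inhibition.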
# Experiments:
# Experiment in all cases: NCI tumour cell line growth inhibition, 48 h
# 786-0 renal = tested on: 786-0 renal
# A498 renal = tested on: A498 renal
# A549 NSCLC = tested on: A549 NSCLC
# ACHN renal = tested on: ACHN renal
# BT-549 breast = tested on: BT-549 breast
# CAKI-1 renal = tested on: CAKI-1 renal
# CCRF-CEM leukemia = tested on: CCRF-CEM leukemia
# COLO 205 colon = tested on: COLO 205 colon
# DU-145 prostate = tested on: DU-145 prostate
# HCC-2998 colon = tested on: HCC-2998 colon
# HCT-116 colon = tested on: HCT-116 colon
# HCT-15 colon = tested on: HCT-15 colon
# HL-60(TB) leukemia = tested on: HL-60(TB) leukemia
# HOP-62 NSCLC = tested on: HOP-62 NSCLC
# HOP-92 NSCLC = tested on: HOP-92 NSCLC
# HS 578T breast = tested on: HS 578T breast
# HT29 colon = tested on: HT29 colon
# IGROV1 ovarian = tested on: IGROV1 ovarian
# K-562 leukemia = tested on: K-562 leukemia
# KM12 colon = tested on: KM12 colon
# LOX IMVI melanoma = tested on: LOX IMVI melanoma
# M14 melanoma = tested on: M14 melanoma
# MALME-3M melanoma = tested on: MALME-3M melanoma
# MCF7 breast = tested on: MCF7 breast
# MDA-MB-231 breast = tested on: MDA-MB-231 breast
# MDA-MB-435 = tested on: MDA-MB-435
# MOLT-4 leukemia = tested on: MOLT-4 leukemia
# NCI-H226 lung = tested on: NCI-H226 lung
# NCI-H23 lung = tested on: NCI-H23 lung
# NCI-H460 lung = tested on: NCI-H460 lung
# NCI-H522 lung = tested on: NCI-H522 lung
# NCI/ADR-RES ovarian = tested on: NCI/ADR-RES ovarian
# OVCAR-3 ovarian = tested on: OVCAR-3 ovarian
# OVCAR-4 ovarian = tested on: OVCAR-4 ovarian
# OVCAR-5 ovarian = tested on: OVCAR-5 ovarian
# OVCAR-8 ovarian = tested on: OVCAR-8 ovarian
# PC-3 prostate = tested on: PC-3 prostate
# RPMI-8226 leukemia = tested on: RPMI-8226 leukemia
# RXF 393 renal = tested on: RXF 393 renal
# SF-268 CNS = tested on: SF-268 CNS
# SF-295 CNS = tested on: SF-295 CNS
# SF-539 CNS = tested on: SF-539 CNS
# SK-MEL-2 melanoma = tested on: SK-MEL-2 melanoma
# SK-MEL-28 melanoma = tested on: SK-MEL-28 melanoma
# SK-MEL-5 melanoma = tested on: SK-MEL-5 melanoma
# SK-OV-3 ovarian = tested on: SK-OV-3 ovarian
# SN12C renal = tested on: SN12C renal
# SNB-19 CNS = tested on: SNB-19 CNS
# SNB-75 CNS = tested on: SNB-75 CNS
# SR leukemia = tested on: SR leukemia
# SW-620 colon = tested on: SW-620 colon
# T-47D breast = tested on: T-47D breast
# TK-10 renal = tested on: TK-10 renal
# U251 CNS = tested on: U251 CNS
# UACC-257 melanoma = tested on: UACC-257 melanoma
# UACC-62 melanoma = tested on: UACC-62 melanoma
# UO-31 renal = tested on: UO-31 renal
# EKVX NSCLC = tested on: EKVX NSCLC
compound,measurement,setting,value
CCN(Cc1ccc(F)cc1)c1ccc(CO)c(F)c1,GI50,786-0 renal,12.6 µM
same,TGI,786-0 renal,36.6 µM
same,GI50,A498 renal,0.114 µM
same,TGI,A498 renal,0.252 µM
same,GI50,A549 NSCLC,10.5 µM
same,TGI,A549 NSCLC,> 66.1 µM
same,GI50,ACHN renal,14.9 µM
same,TGI,ACHN renal,> 100 µM
same,GI50,BT-549 breast,12.5 µM
same,TGI,BT-549 breast,39.4 µM
same,GI50,CAKI-1 renal,3.74 µM
same,TGI,CAKI-1 renal,36.4 µM
same,GI50,CCRF-CEM leukemia,21.5 µM
same,TGI,CCRF-CEM leukemia,> 74.6 µM
same,GI50,COLO 205 colon,10.8 µM
same,TGI,COLO 205 colon,27.6 µM
same,GI50,DU-145 prostate,23.5 µM
same,TGI,DU-145 prostate,> 100 µM
same,GI50,HCC-2998 colon,18.7 µM
same,TGI,HCC-2998 colon,54.6 µM
same,GI50,HCT-116 colon,2.38 µM
same,TGI,HCT-116 colon,13.5 µM
same,GI50,HCT-15 colon,10.4 µM
same,TGI,HCT-15 colon,> 88.1 µM
same,GI50,HL-60(TB) leukemia,12.8 µM
same,TGI,HL-60(TB) leukemia,37.3 µM
same,GI50,HOP-62 NSCLC,15.2 µM
same,TGI,HOP-62 NSCLC,> 100 µM
same,GI50,HOP-92 NSCLC,9.52 µM
same,TGI,HOP-92 NSCLC,37.9 µM
same,GI50,HS 578T breast,17.2 µM
same,TGI,HS 578T breast,> 75.5 µM
same,GI50,HT29 colon,16 µM
same,TGI,HT29 colon,> 53.9 µM
same,GI50,IGROV1 ovarian,1.26 µM
same,TGI,IGROV1 ovarian,5.03 µM
same,GI50,K-562 leukemia,7.46 µM
same,TGI,K-562 leukemia,> 73.5 µM
same,GI50,KM12 colon,22.9 µM
same,TGI,KM12 colon,> 71.8 µM
same,GI50,LOX IMVI melanoma,13.9 µM
same,TGI,LOX IMVI melanoma,31.2 µM
same,GI50,M14 melanoma,20.4 µM
same,TGI,M14 melanoma,> 67.5 µM
same,GI50,MALME-3M melanoma,18.7 µM
same,TGI,MALME-3M melanoma,43.9 µM
same,GI50,MCF7 breast,6.03 µM
same,TGI,MCF7 breast,60.7 µM
same,GI50,MDA-MB-231 breast,18.9 µM
same,TGI,MDA-MB-231 breast,> 69 µM
same,GI50,MDA-MB-435,22.8 µM
same,TGI,MDA-MB-435,> 72.4 µM
same,GI50,MOLT-4 leukemia,21.2 µM
same,TGI,MOLT-4 leukemia,57.6 µM
same,GI50,NCI-H226 lung,0.171 µM
same,TGI,NCI-H226 lung,0.364 µM
same,GI50,NCI-H23 lung,17.5 µM
same,TGI,NCI-H23 lung,> 94.6 µM
same,GI50,NCI-H460 lung,3.93 µM
same,TGI,NCI-H460 lung,20.4 µM
same,GI50,NCI-H522 lung,14.1 µM
same,TGI,NCI-H522 lung,35.8 µM
same,GI50,NCI/ADR-RES ovarian,18 µM
same,TGI,NCI/ADR-RES ovarian,68.7 µM
same,GI50,OVCAR-3 ovarian,5.38 µM
same,TGI,OVCAR-3 ovarian,18 µM
same,GI50,OVCAR-4 ovarian,3.93 µM
same,TGI,OVCAR-4 ovarian,27.6 µM
same,GI50,OVCAR-5 ovarian,1.26 µM
same,TGI,OVCAR-5 ovarian,4.13 µM
same,GI50,OVCAR-8 ovarian,16.2 µM
same,TGI,OVCAR-8 ovarian,> 84.5 µM
same,GI50,PC-3 prostate,21.6 µM
same,TGI,PC-3 prostate,94.6 µM
same,GI50,RPMI-8226 leukemia,7.13 µM
same,TGI,RPMI-8226 leukemia,33.7 µM
same,GI50,RXF 393 renal,5.47 µM
same,TGI,RXF 393 renal,25.9 µM
same,GI50,SF-268 CNS,24.8 µM
same,TGI,SF-268 CNS,> 92.3 µM
same,GI50,SF-295 CNS,5.7 µM
same,TGI,SF-295 CNS,31.7 µM
same,GI50,SF-539 CNS,18.8 µM
same,TGI,SF-539 CNS,56.5 µM
same,GI50,SK-MEL-2 melanoma,10.5 µM
same,TGI,SK-MEL-2 melanoma,26.8 µM
same,GI50,SK-MEL-28 melanoma,32 µM
same,TGI,SK-MEL-28 melanoma,> 100 µM
same,GI50,SK-MEL-5 melanoma,10.9 µM
same,TGI,SK-MEL-5 melanoma,24.2 µM
same,GI50,SK-OV-3 ovarian,15.9 µM
same,TGI,SK-OV-3 ovarian,80.7 µM
same,GI50,SN12C renal,19.5 µM
same,TGI,SN12C renal,99.1 µM
same,GI50,SNB-19 CNS,27.3 µM
same,TGI,SNB-19 CNS,> 100 µM
same,GI50,SNB-75 CNS,10 µM
same,TGI,SNB-75 CNS,> 86.4 µM
same,GI50,SR leukemia,15.1 µM
same,TGI,SR leukemia,45.1 µM
same,GI50,SW-620 colon,7.09 µM
same,TGI,SW-620 colon,> 100 µM
same,GI50,T-47D breast,1.35 µM
same,TGI,T-47D breast,8.31 µM
same,GI50,TK-10 renal,0.625 µM
same,TGI,TK-10 renal,3.07 µM
same,GI50,U251 CNS,12.5 µM
same,TGI,U251 CNS,> 63 µM
same,GI50,UACC-257 melanoma,2.33 µM
same,TGI,UACC-257 melanoma,9.29 µM
same,GI50,UACC-62 melanoma,1.62 µM
same,TGI,UACC-62 melanoma,7.42 µM
same,GI50,UO-31 renal,8.67 µM
same,TGI,UO-31 renal,54.4 µM
CC1CC[C@@]2(OC1)OC1C[C@H]3[C@@H]4CC=C5CC(OC6OC(CO)C(OC7OC(CO)C(O)C(OC8OCC(O)C(O)C8O)C7OC7OC(CO)C(O)C(O)C7O)C(O)C6O)CCC5(C)[C@H]4CCC3(C)C1[C@@H]2C (stereo partly specified),TGI,786-0 renal,19.4 µM
same,TGI,A498 renal,9.19 µM
same,TGI,A549 NSCLC,8.01 µM
same,TGI,ACHN renal,10.6 µM
same,TGI,BT-549 breast,9.24 µM
same,TGI,CAKI-1 renal,10.3 µM
same,TGI,CCRF-CEM leukemia,12.1 µM
same,TGI,COLO 205 colon,8.16 µM
same,TGI,DU-145 prostate,9.48 µM
same,TGI,EKVX NSCLC,9.01 µM
same,TGI,HCC-2998 colon,8.63 µM
same,TGI,HCT-116 colon,8.14 µM
same,TGI,HCT-15 colon,> 25 µM
same,TGI,HL-60(TB) leukemia,9.35 µM
same,TGI,HOP-62 NSCLC,9.32 µM
same,TGI,HOP-92 NSCLC,> 25 µM
same,TGI,HS 578T breast,9.57 µM
same,TGI,HT29 colon,9.4 µM
same,TGI,IGROV1 ovarian,8.06 µM
same,TGI,K-562 leukemia,17.7 µM
same,TGI,KM12 colon,10.5 µM
same,TGI,LOX IMVI melanoma,8.53 µM
same,TGI,M14 melanoma,17.1 µM
same,TGI,MALME-3M melanoma,> 25 µM
same,TGI,MCF7 breast,14.6 µM
same,TGI,MDA-MB-231 breast,9.29 µM
same,TGI,MDA-MB-435,13.4 µM
same,TGI,MOLT-4 leukemia,19.8 µM
same,TGI,NCI-H226 lung,> 25 µM
same,TGI,NCI-H23 lung,11.7 µM
same,TGI,NCI-H460 lung,11.8 µM
same,TGI,NCI-H522 lung,9.69 µM
same,TGI,NCI/ADR-RES ovarian,12.9 µM
same,TGI,OVCAR-3 ovarian,9.25 µM
same,TGI,OVCAR-4 ovarian,17.4 µM
same,TGI,OVCAR-5 ovarian,> 25 µM
same,TGI,OVCAR-8 ovarian,8.95 µM
same,TGI,PC-3 prostate,7.45 µM
same,TGI,RPMI-8226 leukemia,18.4 µM
same,TGI,RXF 393 renal,9.43 µM
same,TGI,SF-268 CNS,9.45 µM
same,TGI,SF-295 CNS,21.2 µM
same,TGI,SF-539 CNS,7.37 µM
same,TGI,SK-MEL-2 melanoma,> 25 µM
same,TGI,SK-MEL-28 melanoma,> 25 µM
same,TGI,SK-MEL-5 melanoma,8.43 µM
same,TGI,SK-OV-3 ovarian,20.7 µM
same,TGI,SN12C renal,8.27 µM
same,TGI,SNB-19 CNS,> 25 µM
same,TGI,SNB-75 CNS,13.7 µM
same,TGI,SR leukemia,17.7 µM
same,TGI,SW-620 colon,8.3 µM
same,TGI,T-47D breast,11.9 µM
same,TGI,TK-10 renal,20.2 µM
same,TGI,U251 CNS,8.72 µM
same,TGI,UACC-257 melanoma,18 µM
same,TGI,UACC-62 melanoma,> 25 µM
